Measured values as given in patent US20240293416A1, “TREATMENT OF LIVER DISORDERS WITH A THR-ß AGONIST” (Terns Pharmaceuticals, Inc., priority 2021, published 2024).
Marks after values point to notes of the source that are not given here.

Test: Single ascending dose trial: adverse event and safety monitoring
Type: in vivo, human
Details: fasted, n = 6
Method: A single-ascending dose clinical trial of Compound 1 (potassium salt) was performed.

N#Cc1nn(-c2cc(Cl)c(Oc3n[nH]c(=O)c4ccccc34)c(Cl)c2)c(=O)[nH]c1=O [Compound 2]
0: AEs by relationship to drug: Possibly related (single 3 mg dose) | AEs by relationship to drug: Related (single 3 mg dose) | AEs by relationship to drug: Unlikely related (single 3 mg dose) | CTCAE Grade 1 (single 3 mg dose) | CTCAE Grade 2 (single 3 mg dose) | CTCAE Grade 3 or higher (single 3 mg dose) | Serious AEs (single 3 mg dose) | AEs by relationship to drug: Not related (single 10 mg dose) | AEs by relationship to drug: Possibly related (single 10 mg dose) | AEs by relationship to drug: Related (single 10 mg dose) | AEs by relationship to drug: Unlikely related (single 10 mg dose) | Any AE, all CTCAE grades (single 10 mg dose) | CTCAE Grade 1 (single 10 mg dose) | CTCAE Grade 2 (single 10 mg dose) | CTCAE Grade 3 or higher (single 10 mg dose) | Serious AEs (single 10 mg dose) | AEs by relationship to drug: Related (single 30 mg dose) | AEs by relationship to drug: Unlikely related (single 30 mg dose) | CTCAE Grade 3 or higher (single 30 mg dose) | Serious AEs (single 30 mg dose) | AEs by relationship to drug: Not related (single 60 mg dose) | AEs by relationship to drug: Possibly related (single 60 mg dose) | AEs by relationship to drug: Related (single 60 mg dose) | AEs by relationship to drug: Unlikely related (single 60 mg dose) | Any AE, all CTCAE grades (single 60 mg dose) | CTCAE Grade 1 (single 60 mg dose) | CTCAE Grade 2 (single 60 mg dose) | CTCAE Grade 3 or higher (single 60 mg dose) | Serious AEs (single 60 mg dose)
1 (16.7%): AEs by relationship to drug: Not related (single 30 mg dose) | CTCAE Grade 1 (single 30 mg dose) | CTCAE Grade 2 (single 30 mg dose)
2 (33.3%): AEs by relationship to drug: Not related (single 3 mg dose) | Any AE, all CTCAE grades (single 3 mg dose) | Any AE, all CTCAE grades (single 30 mg dose)
1 (16.7%)*: AEs by relationship to drug: Possibly related (single 30 mg dose)
